From patent US20110039879A1, “METHODS FOR INCREASING WHITE BLOOD CELLS” (FibroGen ,Inc., priority 2007, published 2011) come the findings set out here.

SMILES strings stand for the structures.

Format in all cases: in vivo, Swiss-Webster mice
Experiment [1] has as its system total white blood cell (WBC). Kind of experiment: Total white blood cells by complete blood count on day 8, dosing day 1, 3, 5. The note with it: Mus musculus, 192 h, mice, oral gavage, measured on day 8, read-out: Total WBC % Increase Over Control; for change in vivo at 200 mg/kg: 200 mg/kg on day 1, day 3 and day 5; for change in vivo at 20 mg/kg: 20 mg/kg on day 1, day 3 and day 5; for change in vivo at 100 mg/kg: 100 mg/kg on day 1, day 3 and day 5. Here is the method:
(§1) To examine the effect of compounds and methods of the present invention on increasing white blood cells, the following studies were performed. In one series of experiments, male Swiss-Webster mice were administered various compounds of the present invention via oral gavage using a ball-tipped gavage needle. […] Animals were dosed once daily for 3 or 4 days. Six hours after the final dosing, 200 μl blood samples were collected and total white blood cell, neutrophil, and lymphocyte levels were measured by complete blood count (CBC) using a CellDyn cell analyzer (Abbott Laboratories).
(§2) In another series of experiments, male Swiss-Webster mice were administered various compounds (see Table 7 and Table 8) of the present invention via oral gavage using a ball-tipped gavage needle. […] Total WBC, neutrophil, lymphocyte, and monocyte levels were measured in mice as described above on day 8 following administration of compound on day 1, day 3, and day 5.

Experiment [2] relates to neutrophils. Nature of the experiment: Neutrophils by complete blood count on day 8, dosing day 1, 3, 5. The conditions noted are these: Mus musculus, Neutrophil, 192 h, mice, oral gavage, measured on day 8, read-out: Neutrophils % Increase Over Control; for change in vivo at 200 mg/kg: 200 mg/kg on day 1, day 3 and day 5; for change in vivo at 20 mg/kg: 20 mg/kg on day 1, day 3 and day 5; for change in vivo at 100 mg/kg: 100 mg/kg on day 1, day 3 and day 5. Here is the method: as §1, §2

In experiment [3] the test system is neutrophils. Described as above. The conditions noted are these: mice, oral gavage, measured on day 8.
The test system of experiment [4] is total white blood cell (WBC). Nature of the experiment: Total white blood cells by complete blood count on day 8, dosing day 1, 3, 5. The conditions noted are these: mice, oral gavage, measured on day 8.
In a further experiment the test system is monocytes. Nature of the experiment: Monocytes by complete blood count on day 8, dosing day 1, 3, 5. The note with it: mice, oral gavage, measured on day 8.
The next experiment relates to lymphocytes. Nature of the experiment: Lymphocytes by complete blood count on day 8, dosing day 1, 3, 5. The conditions noted are these: mice, oral gavage, measured on day 8. Here is the method:
as §1, §2

[5] abbreviates: 200 mg/kg on day 1, day 3 and day 5.
[6] abbreviates: Mus musculus, Monocyte, 192 h, 200 mg/kg on day 1, day 3 and day 5, read-out: Monocytes % Increase Over Control.
Setting [7] is: Mus musculus, Lymphocyte, 192 h, 200 mg/kg on day 1, day 3 and day 5, read-out: Lymphocytes % Increase Over Control.
The mark [8] stands for this setting: 20 mg/kg on day 1, day 3 and day 5.
The mark [9] stands for this setting: Mus musculus, Monocyte, 192 h, 20 mg/kg on day 1, day 3 and day 5, read-out: Monocytes % Increase Over Control.
The mark [10] stands for this setting: Mus musculus, Lymphocyte, 192 h, 20 mg/kg on day 1, day 3 and day 5, read-out: Lymphocytes % Increase Over Control.
Setting [11] is: 100 mg/kg on day 1, day 3 and day 5.
Where [12] appears, read: Mus musculus, Monocyte, 192 h, 100 mg/kg on day 1, day 3 and day 5, read-out: Monocytes % Increase Over Control.
Where [13] appears, read: Mus musculus, Lymphocyte, 192 h, 100 mg/kg on day 1, day 3 and day 5, read-out: Lymphocytes % Increase Over Control.
The mark [14] stands for this setting: 60 mg/kg on day 1, day 3 and day 5.

Turning to `C[C@@H](c1ccccc1)n1c(Cl)c(Cl)c2c(O)c(C(=O)NCC(=O)O)nc(C#N)c21` [Compound AL, {[(S)-2,3-Dichloro-7-cyano-4-hydroxy-1-(1-phenyl-ethyl)-1H-pyrrolo[2,3-c]pyridine-5-carbonyl]-amino}-acetic acid], the change in vivo at 200 mg/kg in experiment [1] was found to be 207%; with neutrophils [2], 265%; in the experiment on monocytes (setting [6]) it was 33%; with lymphocytes (setting [7]), 205%. The Neutrophils in the experiment with neutrophils [3] (setting [5]) is on record as 2.8 10^3 cells/μl. Besides, in experiment [4] (setting [5]), the “Total WBC” value is on record as 18.2 10^3 cells/μl. Also, the Monocytes with monocytes (setting [5]) is on record as 0.1 10^3 cells/μl. Further, the Lymphocytes in the experiment with lymphocytes (setting [5]) was 15.3 10^3 cells/μl.
Take `CCCCCCn1cc(Cl)c2c(O)c(C(=O)NCC(=O)O)nc(C#N)c21` [Compound AS, [(3-Chloro-7-cyano-1-hexyl-4-hydroxy-1H-pyrrolo[2,3-c]pyridine-5-carbonyl)-amino]-acetic acid]: the change in vivo at 20 mg/kg in experiment [1] is 24%; with neutrophils [2] it was 42%; with monocytes (setting [9]), -8%; with lymphocytes (setting [10]), 24%. Besides, the Neutrophils in the experiment on neutrophils [3] (setting [8]) was 0.9 10^3 cells/μl. The “Total WBC” value in experiment [4] (setting [8]) is 7.2 10^3 cells/μl. Besides, the Monocytes in the experiment with monocytes (setting [8]) is 0.2 10^3 cells/μl. For the same compound, in the experiment with lymphocytes (setting [8]), the Lymphocytes is 6.0 10^3 cells/μl.
Take `N#Cc1nc(C(=O)NCC(=O)O)c(O)c2c(Cl)cn(Cc3ccccc3C(F)(F)F)c12` [Compound AT, {[3-Chloro-7-cyano-4-hydroxy-1-(2-trifluoromethyl-benzyl)-1H-pyrrolo[2,3-c]pyridine-5-carbonyl]-amino}-acetic acid]: the change in vivo at 100 mg/kg in experiment [1] was 81%; with neutrophils [2] it was 27%; in the experiment with monocytes (setting [12]) it was 94%; in the experiment with lymphocytes (setting [13]) it was 94%. In addition, the Neutrophils in the experiment on neutrophils [3] (setting [11]) is given as 0.8 10^3 cells/μl. In addition, the “Total WBC” value in experiment [4] (setting [11]) is on record as 9.4 10^3 cells/μl. Also, in the experiment on monocytes (setting [11]), the Monocytes is recorded as 0.2 10^3 cells/μl. Further, the Lymphocytes in the experiment with lymphocytes (setting [11]) is on record as 8.5 10^3 cells/μl.
On to `N#Cc1nc(C(=O)NCC(=O)O)c(O)c2ccn(Cc3ccc(-c4ccccc4)cc3)c12` [Compound AU, [(1-Biphenyl-4-ylmethyl-7-cyano-4-hydroxy-1H-pyrrolo[2,3-c]pyridine-5-carbonyl)-amino]-acetic acid], for which the change in vivo at 60 mg/kg in experiment [1] (setting [14]) was 290%; with neutrophils [2] (setting [14]), 63%; in the experiment with monocytes (Mus musculus, Monocyte, 192 h, 60 mg/kg on day 1, day 3 and day 5, read-out: Monocytes % Increase Over Control) it was 118%; in the experiment with lymphocytes (Mus musculus, Lymphocyte, 192 h, 60 mg/kg on day 1, day 3 and day 5, read-out: Lymphocytes % Increase Over Control), 332%. Besides, the Neutrophils in the experiment on neutrophils [3] (setting [14]) is 1.1 10^3 cells/μl. Also, in experiment [4] (setting [14]), the “Total WBC” value was 22.6 10^3 cells/μl. Moreover, the Monocytes in the experiment on monocytes (setting [14]) is 0.3 10^3 cells/μl. Also, in the experiment with lymphocytes (setting [14]), the Lymphocytes is on record as 21.0 10^3 cells/μl.
Take `N#Cc1nc(C(=O)NCC(=O)O)c(O)c2c(Cl)cn(Cc3ccc(-c4ccccc4)cc3)c12` [Compound AW, [(1-Biphenyl-4-ylmethyl-3-chloro-7-cyano-4-hydroxy-1H-pyrrolo[2,3-c]pyridine-5-carbonyl)-amino]-acetic acid]: the change in vivo at 200 mg/kg in experiment [1] was found to be 616%; in the experiment with neutrophils [2], 604%; with monocytes (setting [6]), 100%; with lymphocytes (setting [7]), 635%. The Neutrophils in the experiment with neutrophils [3] (setting [5]) is given as 4.7 10^3 cells/μl. Further, in experiment [4] (setting [5]), the “Total WBC” value is recorded as 39.1 10^3 cells/μl. Also, in the experiment with monocytes (setting [5]), the Monocytes is on record as 0.2 10^3 cells/μl. The Lymphocytes in the experiment on lymphocytes (setting [5]) is on record as 34.1 10^3 cells/μl.
As for `Cc1cccc(Oc2cccc3c(C#N)nc(C(=O)NCC(=O)O)c(O)c23)c1` [Compound AY, {[1-Cyano-4-hydroxy-5-m-tolyloxy-isoquinoline-3-carbonyl]-amino}-acetic acid], the change in vivo at 20 mg/kg in experiment [1] amounted to 19%; in the experiment on neutrophils [2] it was 9%; with monocytes (setting [9]) it was 8%; in the experiment with lymphocytes (setting [10]) it was 21%. Also, the Neutrophils in the experiment with neutrophils [3] (setting [8]) was 0.7 10^3 cells/μl. Besides, the “Total WBC” value in experiment [4] (setting [8]) is listed as 7.5 10^3 cells/μl. Moreover, the Monocytes in the experiment on monocytes (setting [8]) was 0.2 10^3 cells/μl. In the experiment on lymphocytes (setting [8]), the Lymphocytes is reported as 6.5 10^3 cells/μl.
Turning to `Cc1ccc(Oc2cccc3c(C#N)nc(C(=O)NCC(=O)O)c(O)c23)cc1` [Compound BA, [(1-Cyano-4-hydroxy-5-p-tolyloxy-isoquinoline-3-carbonyl)-amino]-acetic acid], the change in vivo at 100 mg/kg in experiment [1] was determined as 434%; in the experiment on neutrophils [2], 38%; with monocytes (setting [12]), 20%; in the experiment on lymphocytes (setting [13]), 514%. Moreover, the Neutrophils in the experiment on neutrophils [3] (setting [11]) is on record as 0.7 10^3 cells/μl. For the same compound, the “Total WBC” value in experiment [4] (setting [11]) was 24.7 10^3 cells/μl. For the same compound, the Monocytes in the experiment with monocytes (setting [11]) was 0.2 10^3 cells/μl. For the same compound, the Lymphocytes in the experiment on lymphocytes (setting [11]) is 23.8 10^3 cells/μl.
On to `O=C(O)CNC(=O)c1c(O)c2ccccc2sc1=O` [Compound BF, [(4-Hydroxy-2-oxo-2H-thiochromene-3-carbonyl)-amino]-acetic acid], for which the change in vivo at 20 mg/kg in experiment [1] is 17%; in the experiment on neutrophils [2], 65%; with monocytes (setting [9]), 64%; in the experiment with lymphocytes (setting [10]), 12%. Further, the Neutrophils in the experiment on neutrophils [3] (setting [8]) is reported as 1.0 10^3 cells/μl. Moreover, the “Total WBC” value in experiment [4] (setting [8]) is on record as 8.4 10^3 cells/μl. In addition, the Monocytes in the experiment on monocytes (setting [8]) was 0.2 10^3 cells/μl. Also, the Lymphocytes with lymphocytes (setting [8]) is reported as 7.1 10^3 cells/μl.
Take `O=C(O)CNC(=O)c1c(O)c2cccn2n(Cc2ccc(C(F)(F)F)cc2)c1=O` [Compound BG, {[4-Hydroxy-2-oxo-1-(4-trifluoromethyl-benzyl)-1,2-dihydro-pyrrolo[1,2-b]pyridazine-3-carbonyl]-amino}-acetic acid]: the change in vivo at 200 mg/kg is 252% in experiment [1], 22% in the experiment on neutrophils [2], 60% in the experiment on monocytes (setting [6]) and 296% in the experiment with lymphocytes (setting [7]). In the experiment on neutrophils [3] (setting [5]), the Neutrophils is recorded as 1.0 10^3 cells/μl. For the same compound, in experiment [4] (setting [5]), the “Total WBC” value is 26.2 10^3 cells/μl. Also, the Monocytes in the experiment on monocytes (setting [5]) is recorded as 0.2 10^3 cells/μl. The Lymphocytes with lymphocytes (setting [5]) was 24.4 10^3 cells/μl.
For `N#Cc1nc(C(=O)NCC(=O)O)c(O)c2cc(Oc3ccc(F)cc3)ccc12` [Compound D, {[1-Cyano-6-(4-fluoro-phenoxy)-4-hydroxy-isoquinoline-3-carbonyl]-amino}-acetic acid], the change in vivo at 100 mg/kg in experiment [1] is 152%; with neutrophils [2], 242%; in the experiment on lymphocytes (setting [13]), 140%. In addition, the Neutrophils in the experiment on neutrophils [3] (setting [11]) is listed as 1.3 10^3 cells/μl. Also, the “Total WBC” value in experiment [4] (setting [11]) is reported as 10.8 10^3 cells/μl. The Monocytes in the experiment with monocytes (setting [11]) is reported as 0.2 10^3 cells/μl. For the same compound, the Lymphocytes with lymphocytes (setting [11]) is 9.3 10^3 cells/μl.
Consider `Cc1cccc(C)c1Oc1ccc2c(C#N)nc(C(=O)NCC(=O)O)c(O)c2c1` [Compound E, {[1-Cyano-6-(2,6-dimethyl-phenoxy)-4-hydroxy-isoquinoline-3-carbonyl]-amino}-acetic acid], for which the change in vivo at 200 mg/kg in experiment [1] was 221%; in the experiment on neutrophils [2], 54%; in the experiment with monocytes (setting [6]) it was 100%; in the experiment with lymphocytes (setting [7]) it was 245%. Also, the Neutrophils in the experiment on neutrophils [3] (setting [5]) is recorded as 0.8 10^3 cells/μl. The “Total WBC” value in experiment [4] (setting [5]) was 16.6 10^3 cells/μl. The Monocytes in the experiment on monocytes (setting [5]) is 0.1 10^3 cells/μl. Besides, the Lymphocytes in the experiment on lymphocytes (setting [5]) is 15.8 10^3 cells/μl.
